According to US11414450B1, “Aminoglycosides and uses thereof” (REVAGENIX, INC., priority 2017, dated 2022):
Converted amounts (≈) assume the structure as drawn.

How the values were obtained:
[1] = tested on: P. aeruginosa Δefflux (MexAB-OprM, MexCD-OprJ, MexEF-OprN knocked out); experiment: MIC broth microdilution, P. aeruginosa Δefflux strain; type: cell-based
Description: (§1) Minimum inhibitory concentrations for the example compounds herein are determined by the broth microdilution method in accordance with the Clinical and Laboratory Standards Institute (CLSI) guidelines. In brief, organism suspensions are adjusted to a 0.5 McFarland standard to yield a final inoculum between 3×10^5 and 7×10^5 colony-forming units (CFU)/mL. Compound dilutions and inocula are made in sterile, cation adjusted Mueller-Hinton Broth (Beckton Dickinson). The inoculum is prepared by suspension of a colony from an agar plate that is prepared the previous day. Bacteria are suspended in sterile saline and added to each assay plate to obtain a final concentration of 5×10^5 CFU/mL. An inoculum volume of 100 μL is added to wells containing 100 μL of broth with 2-fold serial dilutions of the compound. All inoculated microdilution trays are incubated in ambient air at 35° C. for 18-24 hours. Following incubation, the lowest concentration of the compound that prevents visible growth (OD 600 nm<0.05) is recorded as the MIC. […] Performance of the assay is monitored by the use of laboratory quality-control strains and a compound with a defined MIC spectrum (such as levofloxacin), in accordance with CLSI guidelines. Compounds are tested against multiple microbiologic panels. Panels include: 1) a multi-species primary screening panel that includes multiple defined AG-R mechanisms; 2) a panel of isogenic strains carrying different common mechanisms of AG-R that allows characterization of the SAR for AMEs, RMTs, and entry and efflux resistance mechanisms; and 3) panels of recent clinical isolates selected from Phase 3 studies and ongoing global surveillance.

[2] = tested on: P. aeruginosa efflux parent; experiment: MIC broth microdilution, P. aeruginosa efflux parent strain; type: cell-based; settings: for MIC: Pseudomonas aeruginosa, P. aeruginosa efflux parent strain, read-out: Geometric Mean MIC values, P. aeruginosa efflux parent
Description: as §1

P. aeruginosa ATCC 27853 = experiment: MIC broth microdilution, P. aeruginosa ATCC 27853; type: cell-based; settings: for MIC: Pseudomonas aeruginosa, ATCC27853, P. aeruginosa ATCC 27853, contains aph(3′)-IIb, read-out: Geometric Mean MIC values, P. aeruginosa ATCC 27853
Description: as §1

translation = experiment: Translation Inhibition Assay; type: biochemical
Excerpt: Biological Example 2: Translation Inhibition Assay

E. coli ATCC 25922 = experiment: Minimum inhibitory concentration (broth microdilution, CLSI), E. coli ATCC 25922; type: cell-based; settings: Table 1; geometric mean
Description: as §1

[3] = tested on: E. coli Δefflux (tolC efflux pump knocked-out); experiment: MIC broth microdilution, E. coli Δefflux strain (tolC knocked out); type: cell-based; settings: Table 1
Description: as §1

E. coli efflux parent = experiment: MIC broth microdilution, E. coli efflux parent strain; type: cell-based; settings: Table 1; geometric mean
Description: as §1

[4] = Table 2, MexEF-OprN efflux pumps knocked out
[5] = Table 2, strain contains aph(3′)-IIb
[6] = Table 1, MexEF-OprN efflux pumps knocked out
[7] = P. aeruginosa Δefflux, MexEF-OprN efflux pumps knocked out

Row | Compound | Geometric Mean MIC values, P. aeruginosa Δefflux [1, 4] | Geometric Mean MIC values, P. aeruginosa efflux parent ([2]; Table 2) | Geometric Mean MIC values, P. aeruginosa ATCC 27853 (P. aeruginosa ATCC 27853; [5]) | IC50 (translation; Table 2) | other results
1 | NC[C@@H]1O[C@H](O[C@H]2[C@@H](O)[C@H](O[C@@H]3[C@@H](O)[C@H](N)C[C@H](N)[C@H]3O[C@H]3O[C@H](CN)[C@H](O)[C@H](F)[C@H]3N)O[C@@H]2CO)[C@H](N)[C@@H](O)[C@@H]1O | 0.5 µg/mL | 2 µg/mL | 1 µg/mL | 18 nM | 
2 | NC[C@@H]1O[C@H](O[C@H]2[C@@H](O)[C@H](O[C@@H]3[C@@H](O)[C@H](N)C[C@H](N)[C@H]3O[C@H]3O[C@H](CN)[C@@H](O)C(F)(F)[C@H]3N)O[C@@H]2CO)[C@H](N)[C@@H](O)[C@@H]1O | 1 µg/mL | 8 µg/mL | 4 µg/mL | 62 nM | 
3 | NC[C@@H]1O[C@H](O[C@H]2[C@@H](O)[C@H](O[C@@H]3[C@@H](O)[C@H](N)C[C@H](N)[C@H]3O[C@H]3O[C@H](CN)C(F)(F)[C@H](O)[C@H]3N)O[C@@H]2CO)[C@H](N)[C@@H](O)[C@@H]1O | 1 µg/mL | 8 µg/mL | 64 µg/mL | 13 nM | 
4 | NCC1CCC(N)C(OC2C(N)CC(N)C(O)C2OC2OC(CO)C(OC3OC(CN)C(O)C(O)C3N)C2O)O1 (stereo not shown) [drawing 848] |  |  |  |  | Geometric Mean MIC values, P. aeruginosa Δefflux [1, 6]: 0.5 µg/mL; Geometric Mean MIC values, E. coli ATCC 25922 (E. coli ATCC 25922): 1.1 µg/mL; Geometric Mean MIC values, P. aeruginosa efflux parent ([2]; Table 1, geometric mean): 0.77 µg/mL; Geometric Mean MIC values, P. aeruginosa ATCC 27853 (P. aeruginosa ATCC 27853; Table 1, geometric mean): 0.57 µg/mL; Geometric Mean MIC values, E. coli Δefflux [3]: 1.4 µg/mL; Geometric Mean MIC values, E. coli efflux parent (E. coli efflux parent): 1.4 µg/mL; IC50 (translation; Table 1): 13 nM
5 | CC(N)C1CCC(N)C(OC2C(N)CC(N)C(O)C2OC2OC(CO)C(OC3OC(CN)C(O)C(O)C3N)C2O)O1 (stereo not shown) [drawing 849] |  |  |  |  | Geometric Mean MIC values, P. aeruginosa Δefflux [1, 6]: 0.5 µg/mL; Geometric Mean MIC values, E. coli ATCC 25922 (E. coli ATCC 25922): 1.6 µg/mL; Geometric Mean MIC values, P. aeruginosa efflux parent ([2]; Table 1, geometric mean): 1 µg/mL; Geometric Mean MIC values, P. aeruginosa ATCC 27853 (P. aeruginosa ATCC 27853; Table 1, geometric mean): 0.71 µg/mL; Geometric Mean MIC values, E. coli Δefflux [3]: 1 µg/mL; Geometric Mean MIC values, E. coli efflux parent (E. coli efflux parent): 1 µg/mL; IC50 (translation; Table 1): 14 nM
6 | CC(N)C1CCC(N)C(OC2C(N)CC(N)C(O)C2OC2OC(CO)C(OC3OC(CN)C(O)C(O)C3N)C2O)O1 (stereo not shown) [drawing 850] |  |  |  |  | Geometric Mean MIC values, P. aeruginosa Δefflux [1, 6]: 0.5 µg/mL; Geometric Mean MIC values, E. coli ATCC 25922 (E. coli ATCC 25922): 2.5 µg/mL; Geometric Mean MIC values, P. aeruginosa efflux parent ([2]; Table 1, geometric mean): 4 µg/mL; Geometric Mean MIC values, P. aeruginosa ATCC 27853 (P. aeruginosa ATCC 27853; Table 1, geometric mean): 2 µg/mL; Geometric Mean MIC values, E. coli Δefflux [3]: 1 µg/mL; Geometric Mean MIC values, E. coli efflux parent (E. coli efflux parent): 1 µg/mL; IC50 (translation; Table 1): 14 nM
7 | CCC(N)C1CCC(N)C(OC2C(N)CC(N)C(O)C2OC2OC(CO)C(OC3OC(CN)C(O)C(O)C3N)C2O)O1 (stereo not shown) [drawing 851] |  |  |  |  | Geometric Mean MIC values, P. aeruginosa Δefflux [1, 6]: 0.5 µg/mL; Geometric Mean MIC values, E. coli ATCC 25922 (E. coli ATCC 25922): 2 µg/mL; Geometric Mean MIC values, P. aeruginosa efflux parent ([2]; Table 1, geometric mean): 2 µg/mL; Geometric Mean MIC values, P. aeruginosa ATCC 27853 (P. aeruginosa ATCC 27853; Table 1, geometric mean): 2 µg/mL; Geometric Mean MIC values, E. coli Δefflux [3]: 1 µg/mL; Geometric Mean MIC values, E. coli efflux parent (E. coli efflux parent): 2 µg/mL; IC50 (translation; Table 1): 32 nM
8 | CCC(N)C1CCC(N)C(OC2C(N)CC(N)C(O)C2OC2OC(CO)C(OC3OC(CN)C(O)C(O)C3N)C2O)O1 (stereo not shown) [drawing 852] |  |  |  |  | Geometric Mean MIC values, P. aeruginosa Δefflux [1, 6]: 0.5 µg/mL; Geometric Mean MIC values, E. coli ATCC 25922 (E. coli ATCC 25922): 1 µg/mL; Geometric Mean MIC values, P. aeruginosa efflux parent ([2]; Table 1, geometric mean): 2 µg/mL; Geometric Mean MIC values, P. aeruginosa ATCC 27853 (P. aeruginosa ATCC 27853; Table 1, geometric mean): 1 µg/mL; Geometric Mean MIC values, E. coli Δefflux [3]: 1 µg/mL; Geometric Mean MIC values, E. coli efflux parent (E. coli efflux parent): 2 µg/mL; IC50 (translation; Table 1): 26 nM
9 | NCC1OC(OC2C(CO)OC(OC3C(O)C(N)CC(N)C3OC3OC(CN)C(O)C(F)C3N)C2O)C(N)C(O)C1O (stereo not shown) [drawing 853] |  |  |  |  | Geometric Mean MIC values, P. aeruginosa Δefflux [1, 6]: 0.5 µg/mL; Geometric Mean MIC values, E. coli ATCC 25922 (E. coli ATCC 25922): 2 µg/mL; Geometric Mean MIC values, P. aeruginosa efflux parent ([2]; Table 1, geometric mean): 2 µg/mL; Geometric Mean MIC values, P. aeruginosa ATCC 27853 (P. aeruginosa ATCC 27853; Table 1, geometric mean): 1 µg/mL; Geometric Mean MIC values, E. coli Δefflux [3]: 1 µg/mL; Geometric Mean MIC values, E. coli efflux parent (E. coli efflux parent): 2 µg/mL; IC50 (translation; Table 1): 10 nM
10 | NCC1CCC(N)C(OC2C(N)CC(N)C(O)C2OC2OC(CO)C(OC3OC(CN)C(O)C(O)C3N)C2O)O1 (stereo not shown) [drawing 872, reference compound] | 0.4 µg/mL | 0.73 µg/mL | 0.53 µg/mL | 10 nM | 
11 | CC(N)C1CCC(N)C(OC2C(N)CC(N)C(O)C2OC2OC(CO)C(OC3OC(CN)C(O)C(O)C3N)C2O)O1 (stereo not shown) [drawing 873] | 0.42 µg/mL | 1.2 µg/mL | 0.84 µg/mL | 12 nM | 
12 | CC(N)C1CCC(N)C(OC2C(N)CC(N)C(O)C2OC2OC(CO)C(OC3OC(CN)C(O)C(O)C3N)C2O)O1 (stereo not shown) [drawing 874] | 0.5 µg/mL | 4 µg/mL | 2 µg/mL | 14 nM | 
13 | NCC1OC(OC2C(CO)OC(OC3C(O)C(N)CC(N)C3OC3OC(C4(N)CC4)CCC3N)C2O)C(N)C(O)C1O (stereo not shown) [drawing 875] | 0.25 µg/mL | 2 µg/mL | 2 µg/mL | 7.5 nM | 
14 | CCC(N)C1CCC(N)C(OC2C(N)CC(N)C(O)C2OC2OC(CO)C(OC3OC(CN)C(O)C(O)C3N)C2O)O1 (stereo not shown) [drawing 876] | 0.5 µg/mL | 2 µg/mL | 1.4 µg/mL | 32 nM | 
15 | CCC(N)C1CCC(N)C(OC2C(N)CC(N)C(O)C2OC2OC(CO)C(OC3OC(CN)C(O)C(O)C3N)C2O)O1 (stereo not shown) [drawing 877] | 0.5 µg/mL | 2 µg/mL | 1 µg/mL | 26 nM | 
16 | NCC1OC(OC2C(N)CC(N)C(O)C2OC2OC(CO)C(OC3OC(CN)C(O)C(O)C3N)C2O)C(N)CC1O (stereo not shown) [drawing 880, reference compound] | 0.25 µg/mL | 0.5 µg/mL | 0.25 µg/mL | 8.5 nM | 
17 | NC[C@@H]1O[C@H](O[C@H]2[C@@H](O)[C@H](O[C@@H]3[C@@H](O)[C@H](N)C[C@H](N)[C@H]3O[C@H]3O[C@H](CN)[C@@H](O)[C@H](O)[C@H]3N)O[C@@H]2CO)[C@H](N)[C@@H](O)[C@@H]1O [drawing 881, neomycin, reference compound] | 2.2 µg/mL | 6.8 µg/mL | 1 µg/mL | 7.3 nM | 
18 | NCC1OC(OC2C(CO)OC(OC3C(O)C(N)CC(N)C3OC3OC(CN)C(O)C(F)C3N)C2O)C(N)C(O)C1O (stereo not shown) [drawing 882] | 0.5 µg/mL | 2 µg/mL | 1 µg/mL | 10 nM | 
19 | NCC1OC(OC2C(CO)OC(OC3C(O)C(N)CC(N)C3OC3OC(CN)C(O)C(F)C3O)C2O)C(N)C(O)C1O (stereo not shown) [drawing 883] | 0.5 µg/mL | 4 µg/mL | 2 µg/mL | 24 nM | 
20 | NCC1OC(OC2C(CO)OC(OC3C(O)C(N)CC(N)C3OC3OC(CN)C(O)C(F)C3N)C2O)C(N)C(O)C1O (stereo not shown) [drawing 884] | 2 µg/mL | 8 µg/mL | 4 µg/mL | 100 nM | 
21 | NC[C@@H]1CC[C@@H](N)[C@@H](O[C@@H]2[C@@H](N)[C@H](O)[C@@H](N)[C@H](O)[C@H]2O[C@@H]2O[C@H](CO)[C@@H](O[C@H]3O[C@@H](CN)[C@@H](O)[C@H](O)[C@H]3N)[C@H]2O)O1 [drawing 890] |  |  |  |  | Geometric Mean MIC values, P. aeruginosa Δefflux [1, 7]: 0.25 µg/mL; MIC [2]: 1 µg/mL (≈ 1.67 µM); MIC (P. aeruginosa ATCC 27853): 0.5 µg/mL (≈ 0.835 µM); IC50 (translation; translation inhibition assay): 7.9 nM
22 | CO[C@@H]1[C@@H](O[C@@H]2O[C@H](CO)[C@@H](O[C@H]3O[C@@H](CN)[C@@H](O)[C@H](O)[C@H]3N)[C@H]2O)[C@H](O[C@H]2O[C@H](CN)CC[C@H]2N)[C@@H](N)C[C@H]1N [drawing 891] |  |  |  |  | Geometric Mean MIC values, P. aeruginosa Δefflux [1, 7]: 0.25 µg/mL; MIC [2]: 1 µg/mL (≈ 1.68 µM); MIC (P. aeruginosa ATCC 27853): 1 µg/mL (≈ 1.68 µM); IC50 (translation; translation inhibition assay): 5.7 nM
